The values that follow come from US20240067693A1, “POLYPEPTIDES AND USES THEREOF” (MEDIMMUNE LIMITED, priority 2020, published 2024).

Numbered stars: 1 amine (or outer) side, 2 acyl side, 3 side chain; on linkers, the order of the positions; unused ones are H or OH. Bridge positions count the residues as written; N and C are the ends. Square brackets hold non-standard residues; d marks the D form. Side chains are listed from the residue outwards. Peptide text beside a SMILES is read from it. * marks the point of attachment. C20 diacid = O=C(O)CCCCCCCCCCCCCCCCCCC(=O)*; C18 diacid = O=C(O)CCCCCCCCCCCCCCCCC(=O)*; γGlu = O=C(O)[C@H](CCC(=O)[*:2])N[*:1]; αMeF = C[C@](N)(Cc1ccccc1)C(=O)O; Aib = CC(C)(N)C(=O)O

In data set [1] the target is T1, rat amylin receptor (calcitonin receptor co-expressed with receptor activity modifying protein, RAMP3) (Rat AMYR3) (Rattus norvegicus, UniProt P32214+Q9JJ73).
T1 construct: expressed in transfected cells
T1 sequence (P32214 25-516): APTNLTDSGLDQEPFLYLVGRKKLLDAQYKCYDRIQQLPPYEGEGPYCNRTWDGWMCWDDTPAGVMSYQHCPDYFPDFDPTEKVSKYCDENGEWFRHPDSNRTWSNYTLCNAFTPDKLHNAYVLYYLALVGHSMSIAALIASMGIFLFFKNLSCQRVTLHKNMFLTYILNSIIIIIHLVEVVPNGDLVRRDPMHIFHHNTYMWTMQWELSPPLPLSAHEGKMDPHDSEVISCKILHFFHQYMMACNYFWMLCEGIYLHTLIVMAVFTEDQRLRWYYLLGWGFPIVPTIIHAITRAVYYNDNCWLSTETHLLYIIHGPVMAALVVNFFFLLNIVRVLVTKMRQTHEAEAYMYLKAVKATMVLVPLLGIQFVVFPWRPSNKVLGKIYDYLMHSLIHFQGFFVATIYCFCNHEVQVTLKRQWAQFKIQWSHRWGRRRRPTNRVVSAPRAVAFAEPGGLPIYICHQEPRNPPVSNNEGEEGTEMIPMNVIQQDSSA
T1 sequence (Q9JJ73 23-147 partner): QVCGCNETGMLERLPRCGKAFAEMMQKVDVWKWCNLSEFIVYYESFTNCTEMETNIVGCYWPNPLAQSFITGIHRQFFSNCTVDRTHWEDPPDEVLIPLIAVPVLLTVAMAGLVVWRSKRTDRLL
The data set can be described thus: cAMP production in HEK cells with stable recombinant expression of rat amylin receptor (Rat AMYR3). It is filed as cell-based. To be noted: assay buffer with 0.1% BSA. A digest of the protocol:
(§1)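 EC50 values come from 4-parameter logistic fits of HTRF cAMP signal, normalised to maximal calcitonin or amylin effect. Peptides were tested in duplicate for 30 min at RT in IBMX-containing (0.5 mM) BSA/HEPES buffer pH 7.4 on stable 1321N1 (human CTR, AMYR3) or HEK (rat CTR, AMYR3) lines.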

The target in data set [2] is T2, rat calcitonin receptor (rat CTR) (Rattus norvegicus, UniProt P32214).
T2 construct: expressed in transfected cells
T2 sequence (P32214 25-516): T1 sequence (P32214 25-516)
The data set can be described thus: cAMP production in HEK cells with stable recombinant expression of rat calcitonin receptor (rat CTR). Conditions: assay buffer with 0.1% BSA. The data set is classed as cell-based. A digest of the protocol: as §1

Data set [3] can be described thus: Pharmacokinetic determination via IV and SC administration in Sprague Dawley rats. Conditions: male, rat, plasma, 20 nmol/kg.
Data set [4] can be described thus: in vivo. To be noted: male, Sprague-Dawley, rat, 20 nmol/kg.

A word on the EC50: it is the concentration giving half of the maximal effect. Usually half-life stands for how long it takes for the measured level to halve. A high value points to slow decline. In the case of `CC[C@H](C)[C@H](NC(=O)[C@@H]1CCCN1C(=O)CNC(=O)[C@H](Cc1ccccc1)NC(=O)[C@H](CC(N)=O)NC(=O)C(C)(C)NC(=O)[C@H](CO)NC(=O)[C@H](CO)NC(=O)[C@H](Cc1c[nH]cn1)NC(=O)[C@H](CCCNC(=N)N)NC(=O)[C@H](CC(C)C)NC(=O)[C@H](Cc1ccccc1)NC(=O)[C@H](CC(N)=O)NC(=O)[C@H](C)NC(=O)[C@H](CC(C)C)NC(=O)[C@H](CCCNC(=N)N)NC(=O)[C@H](CCC(N)=O)NC(=O)[C@@H](NC(=O)[C@H](C)NC(=O)[C@@H]1CSSC[C@H](NC(=O)[C@@H](N)CCCCNC(=O)CC[C@H](NC(=O)CCCCCCCCCCCCCCCCC(=O)O)C(=O)O)C(=O)N[C@@H](CC(N)=O)C(=O)N[C@@H]([C@@H](C)O)C(=O)N[C@@H](C)C(=O)N[C@@H]([C@@H](C)O)C(=O)N1)[C@@H](C)O)C(=O)N[C@@H](CC(C)C)C(=O)N1CCC[C@H]1C(=O)N1CCC[C@H]1C(=O)N[C@H](C(=O)N[C@@H](CC(N)=O)C(=O)N[C@H](C(=O)NCC(=O)N[C@@H](CO)C(=O)N[C@@H](CC(N)=O)C(=O)N[C@H](C(=O)N[C@@H](Cc1ccc(O)cc1)C(N)=O)[C@@H](C)O)C(C)C)[C@@H](C)O` [Peptide 48, K(γE-C18diacid)[CNTATC]ATQRLANFLRHSS(Aib)NFGPILPPTNVGSNTY-amide] (H-K([γGlu-C18 diacid])CNTATCATQRLANFLRHSS[Aib]NFGPILPPTNVGSNTY-NH2; disulfide 2-7; N-terminus assumed), the EC50 in data set [1] came out at 4.8 pM; in data set [2], 2430 pM. The half-life in data set [3] (iv) is 5.6 h; in data set [3] (sc) it was 8.1 h.

`CC[C@H](C)[C@H](NC(=O)[C@@H]1CCCN1C(=O)CNC(=O)[C@](C)(Cc1ccccc1)NC(=O)[C@H](CC(N)=O)NC(=O)[C@H](CC(N)=O)NC(=O)[C@H](CO)NC(=O)[C@H](CO)NC(=O)[C@H](Cc1c[nH]cn1)NC(=O)[C@H](CCCNC(=N)N)NC(=O)[C@H](CC(C)C)NC(=O)[C@H](Cc1ccccc1)NC(=O)[C@H](CC(N)=O)NC(=O)[C@H](C)NC(=O)[C@H](CC(C)C)NC(=O)[C@H](CCCNC(=N)N)NC(=O)[C@H](CCC(N)=O)NC(=O)[C@@H](NC(=O)[C@H](C)NC(=O)[C@@H]1CSSC[C@H](NC(=O)[C@H](CCCCN)NC(=O)[C@@H](N)CCCCNC(=O)CC[C@H](NC(=O)CCCCCCCCCCCCCCCCC(=O)O)C(=O)O)C(=O)N[C@@H](CC(N)=O)C(=O)N[C@@H]([C@@H](C)O)C(=O)N[C@@H](C)C(=O)N[C@@H]([C@@H](C)O)C(=O)N1)[C@@H](C)O)C(=O)N[C@@H](CC(C)C)C(=O)N1CCC[C@H]1C(=O)N1CCC[C@H]1C(=O)N[C@H](C(=O)N[C@@H](CCC(=O)O)C(=O)N[C@H](C(=O)NCC(=O)N[C@@H](CO)C(=O)N[C@@H](CC(N)=O)C(=O)N[C@H](C(=O)N[C@@H](Cc1ccc(O)cc1)C(N)=O)[C@@H](C)O)C(C)C)[C@@H](C)O` [Peptide 15, K(γE-C18diacid)K[CNTATC]ATQRLANFLRHSSNN(αMePhe)GPILPPTEVGSNTY-amide] (H-K([γGlu-C18 diacid])KCNTATCATQRLANFLRHSSNN[αMeF]GPILPPTEVGSNTY-NH2; disulfide 3-8; N-terminus assumed): the results for the EC50 in data set [1] and in data set [2] were 10.3 pM and 1820 pM, respectively. The half-life is 10.4 h in data set [3] (iv) and 11.5 h in data set [3] (sc).

On to `CC[C@H](C)[C@H](NC(=O)[C@@H]1CCCN1C(=O)CNC(=O)[C@H](Cc1ccccc1)NC(=O)[C@H](CC(N)=O)NC(=O)C(C)(C)NC(=O)[C@H](CO)NC(=O)[C@H](CO)NC(=O)[C@H](Cc1c[nH]cn1)NC(=O)[C@@H](NC(=O)[C@H](CC(C)C)NC(=O)[C@H](Cc1ccccc1)NC(=O)[C@H](CC(N)=O)NC(=O)[C@H](C)NC(=O)[C@H](CC(C)C)NC(=O)[C@H](CCCNC(=N)N)NC(=O)[C@H](CCC(N)=O)NC(=O)[C@@H](NC(=O)[C@H](C)NC(=O)[C@@H]1CSSC[C@H](NC(=O)[C@H](CCCCN)NC(=O)[C@@H](N)CCCCNC(=O)CC[C@H](NC(=O)CCCCCCCCCCCCCCCCC(=O)O)C(=O)O)C(=O)N[C@@H](CC(N)=O)C(=O)N[C@@H]([C@@H](C)O)C(=O)N[C@@H](C)C(=O)N[C@@H]([C@@H](C)O)C(=O)N1)[C@@H](C)O)C(C)C)C(=O)N[C@@H](CC(C)C)C(=O)N1CCC[C@H]1C(=O)N1CCC[C@H]1C(=O)N[C@H](C(=O)N[C@@H](Cc1c[nH]cn1)C(=O)N[C@H](C(=O)NCC(=O)N[C@@H](CO)C(=O)N[C@@H](CC(N)=O)C(=O)N[C@H](C(=O)N[C@@H](Cc1ccc(O)cc1)C(N)=O)[C@@H](C)O)C(C)C)[C@@H](C)O` [Peptide 40, K(γE-C18diacid)K[CNTATC]ATQRLANFLVHSS(Aib)NFGPILPPTHVGSNTY-amide] (H-K([γGlu-C18 diacid])KCNTATCATQRLANFLVHSS[Aib]NFGPILPPTHVGSNTY-NH2; disulfide 3-8), for which the EC50 was found to be 12 pM in data set [1] and 782 pM in data set [2]. For the same compound, the half-life in data set [4] (iv) was 7.4 h; in data set [4] (sc), 8.1 h.

As to `CC[C@H](C)[C@H](NC(=O)[C@@H]1CCCN1C(=O)CNC(=O)[C@H](Cc1ccccc1)NC(=O)[C@H](CC(N)=O)NC(=O)[C@H](CC(N)=O)NC(=O)[C@H](CO)NC(=O)[C@H](CO)NC(=O)[C@H](Cc1c[nH]cn1)NC(=O)[C@@H](NC(=O)[C@H](CC(C)C)NC(=O)[C@H](Cc1ccccc1)NC(=O)[C@H](CC(N)=O)NC(=O)[C@H](C)NC(=O)[C@H](CC(C)C)NC(=O)[C@H](CCCNC(=N)N)NC(=O)[C@H](CCC(N)=O)NC(=O)[C@@H](NC(=O)[C@H](C)NC(=O)[C@@H]1CSSC[C@H](NC(=O)[C@H](CCCCN)NC(=O)CC[C@H](NC(=O)CCCCCCCCCCCCCCCCCCC(=O)O)C(=O)O)C(=O)N[C@@H](CC(N)=O)C(=O)N[C@@H]([C@@H](C)O)C(=O)N[C@@H](C)C(=O)N[C@@H]([C@@H](C)O)C(=O)N1)[C@@H](C)O)C(C)C)C(=O)N[C@@H](CC(C)C)C(=O)N1CCC[C@H]1C(=O)N1CCC[C@H]1C(=O)N[C@H](C(=O)N[C@@H](CC(N)=O)C(=O)N[C@H](C(=O)NCC(=O)N[C@@H](CO)C(=O)N[C@@H](CC(N)=O)C(=O)N[C@H](C(=O)N[C@@H](Cc1ccc(O)cc1)C(N)=O)[C@@H](C)O)C(C)C)[C@@H](C)O` [Peptide 112] ({C20 diacid-γGlu}-KCNTATCATQRLANFLVHSSNNFGPILPPTNVGSNTY-NH2; disulfide 2-7), the EC50 in data set [1] was 16 pM; in data set [2], 258 pM. Further, the half-life in data set [4] (iv) was 11.8 h; in data set [4] (sc) it was 19 h.
